The test addresses T1, Prostaglandin G/H synthase 1 (Ovis aries) (UniProt P05979).
T1 sequence (whole entry): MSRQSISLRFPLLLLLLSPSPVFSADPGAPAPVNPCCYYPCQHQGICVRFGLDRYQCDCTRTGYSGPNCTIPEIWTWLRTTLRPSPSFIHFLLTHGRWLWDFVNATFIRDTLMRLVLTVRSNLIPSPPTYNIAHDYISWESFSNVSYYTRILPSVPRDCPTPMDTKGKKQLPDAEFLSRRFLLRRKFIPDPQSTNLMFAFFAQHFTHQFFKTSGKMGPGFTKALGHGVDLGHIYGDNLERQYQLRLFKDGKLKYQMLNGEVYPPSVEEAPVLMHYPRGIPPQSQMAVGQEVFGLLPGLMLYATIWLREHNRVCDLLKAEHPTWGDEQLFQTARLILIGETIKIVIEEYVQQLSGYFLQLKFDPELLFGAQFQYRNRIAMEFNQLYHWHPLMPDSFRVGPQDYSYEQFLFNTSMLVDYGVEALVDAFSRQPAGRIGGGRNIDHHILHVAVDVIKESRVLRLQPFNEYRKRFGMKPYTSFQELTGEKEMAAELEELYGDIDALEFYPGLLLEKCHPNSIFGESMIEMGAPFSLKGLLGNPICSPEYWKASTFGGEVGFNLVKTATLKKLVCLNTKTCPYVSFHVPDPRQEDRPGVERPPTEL
The test can be described thus: Inhibition of ovine COX1 at 100 uM.

Structures are written as SMILES.

On to `C/C(=C\C(=O)O)CC[C@@H]1[C@@]2(C)CCC[C@@](C)(CO)[C@@H]2CC[C@@]1(C)O`, for which the inhibition was 29%.

The compound `CC(=O)OCC[C@@H]1[C@@]2(C)CCC[C@@](C)(COC(C)=O)[C@@H]2CC[C@@]1(C)O` gave an inhibition of 18%.

Regarding `CC(=O)OC[C@]1(C)CCC[C@]2(C)[C@@H](CC/C(C)=C/C(=O)O)[C@](C)(O)CC[C@@H]12`, the inhibition is 2%.

In turn, `C[C@@]1(CO)CCC[C@]2(C)[C@@H](CCO)[C@](C)(O)CC[C@@H]12` showed an inhibition of 44%.

What is called inhibition is the share of the control response that was lost under treatment.

The values are drawn from ChEMBL document CHEMBL1157397, “Cyclooxygenase (COX)-1 and -2 inhibitory labdane diterpenes from Crassocephalum mannii” (J Nat Prod, 2008).
